Laboratory results taken from PubChem BioAssay (NCI).
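Cultured in 96-well plates, cells were exposed to test compound for 48 hours across five concentrations. Here, GI50 denotes the concentration required for 50% inhibition of growth. At the TGI there is no net growth.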

Columns and labels:
Test in all cases: growth of human tumour cells (NCI), 48 h
[1] = test system: OVCAR-4 ovarian
[2] = test system: SW-620 colon
[3] = test system: UACC-257 melanoma
[4] = test system: HL-60(TB) leukemia
[5] = test system: SNB-19 CNS
[6] = test system: TK-10 renal
[7] = test system: HT29 colon
[8] = test system: NCI/ADR-RES ovarian
[9] = test system: CAKI-1 renal
[10] = test system: HCC-2998 colon

SMILES | GI50 [1] [µM] | TGI [1] [µM] | GI50 [2] [µM] | TGI [2] [µM] | GI50 [3] [µM] | TGI [3] [µM] | GI50 [4] [µM] | TGI [4] [µM] | GI50 [5] [µM] | TGI [5] [µM] | GI50 [6] [µM] | TGI [6] [µM] | GI50 [7] [µM] | TGI [7] [µM] | GI50 [8] [µM] | TGI [8] [µM] | GI50 [9] [µM] | TGI [9] [µM] | GI50 [10] [µM] | TGI [10] [µM]
COc1ccc(-c2cnnn2-c2nonc2-n2cccc2)cc1OC | 18.6 | > 100 | 3.61 | > 100 | 9.61 | > 100 | 3.09 | 15.4 | 13.2 | > 100 | 22.6 | > 100 | 3.31 | > 100 | 2.02 | 5.99 | 3.39 | > 100 | 5.53 | 37.7
Cc1cc(CCl)c(C)cc1CCl | 3.4 | 12.8 | 1.34 | 5.74 | 2.15 | 5.29 | 2.98 | 13.2 | 3.75 | 17.6 | 1.97 | 5.05 | 1.44 | 3.68 | 2.07 | 7.77 | 0.358 | 1.59 | 1.54 | 3.51
O=C(CC1(O)C(=O)Nc2ccc(F)cc21)c1ccc(C(=O)NCC2CCC3(CC2)OOC2(CCCCC2)OO3)cc1 (stereo not given) | 7.74 | 32.5 | 7.72 | 27.4 | 12.7 | 29.9 | 1.43 | 3.46 | 14.8 | 36.5 | 2.03 | 4.36 | 11.7 | 28 | 15.9 | 48.3 | 14 | 27.7 | 14.6 | 30
COc1ccc(-c2c(C#N)c(N)nc(N3CCOCC3)c2C#N)cc1 | 47 | > 100 | 50.3 | > 100 | 23.9 | 82.1 | 20.2 | 63.5 | 21.8 | > 100 | 19.6 | 86.1 | 26.6 | > 100 | 20.6 | 87.3 | 13 | 31.8 | 13 | 31.6
C=C(CN1CCc2c([nH]c3ccccc23)C1)c1ccc(C(=O)Nc2ccccc2N)cc1 | 5.48 | 13.5 | 3.89 | 28.5 | 3.2 | 11.6 | 0.67 | 7.25 | 10.7 | 30.8 | 2.6 | 9.58 |  |  | 1.51 | 17.1 | 1.67 | 8.25 | 0.731 | 1.91
CC(C)(C)[Si](C)(C)OC1[C@@H](CNC(N)=O)O[C@@H](n2cnc3c(NC(=O)Nc4ccccc4)ncnc32)[C@H]1O[Si](C)(C)C(C)(C)C (stereo not given in full) | 2.48 | 10.1 | 0.981 | 1.87 | 5.36 | 12.1 | 1.01 | 2.12 | 5.7 | 12.4 |  |  | 1.07 | 2.22 | 2.93 | 9.81 | 1.76 | 7.12 | 1.6 | 6.18
O=[N+]([O-])c1cc([As](Br)c2ccc(O)c([N+](=O)[O-])c2)ccc1O |  | 3.28 |  | 3.56 |  | 3.33 |  | 4.63 |  | 3.72 |  | 3.14 |  | 25 |  | 8.81 |  | 3.42 |  | 2.72
CCn1cc(/C=C2\Oc3cc(OCC#N)ccc3C2=O)c2cc(OC)ccc21 | 11.2 | > 100 | 0.131 | > 100 | 57.8 | > 100 | 0.0872 | 0.903 | 0.385 | > 69.2 | 18.1 | > 64.1 | 0.134 | > 100 | 0.161 | > 32.9 | 0.0663 | 28.9 | 1.86 | > 100
O=C1/C(=C\c2ccco2)Oc2ccccc21 |  | > 100 |  | > 100 |  | > 100 |  | > 100 |  | > 100 |  | > 100 |  | > 100 |  | > 100 |  | > 100 |  | > 100
COc1cc(OCc2cccc(-c3ccccc3)c2C)cc(OC)c1CN1CCCCC1C(=O)NCCOCCOCCN (stereo not given) | 2.33 | 6.48 | 1.9 | 3.87 | 1.83 | 3.68 | 1.91 | 4.07 | 2.95 | 10.6 | 2.48 | 7.42 | 2.38 | 6.65 | 12.6 | 27.2 | 1.94 | 5.96 | 2.39 | 5.85
Nc1nc(N)c2cc(Sc3ccc4ccccc4c3)ccc2n1 |  | 5.26 |  | 1.91 |  | 4.61 |  | 2.77 |  | 7.61 |  | 6.33 |  | 3.7 |  | 4.35 |  | 15.7 | 0.878 | 2.13
COc1ccc(C2=NC(=O)NC2c2ccc(OC)cc2)cc1 (stereo not given) | 31.5 | > 100 | 4.65 | > 100 | 36.3 | > 100 | 2.2 | 15.6 | 16.9 | > 100 | 4.43 | 35.9 | 3.78 | 27.9 | 4.38 | 58.5 | 2.51 | 15.4 | 13 | 33.6
C=C1C(=O)O[C@H]2[C@H]1CC/C(Cn1cc(-c3ccc(N)cc3)nn1)=C\CC[C@@]1(C)O[C@@H]21 | 4.9 | 18.6 | 2.16 | 6.01 |  |  | 2.23 | 6.43 | 12.7 | 41.1 | 2.25 | 5.43 | 2.14 | 5.47 | 14.5 | 38.2 | 1.77 | 7.03 | 3.49 | 12
